According to publication PMC6095594, “Pre-clinical evaluation of quinoxaline-derived chalcones in tuberculosis” (PLoS ONE, 2018):
pIC50: −log10 of the molar value. Converted amounts (≈) assume the structure as drawn. “And” between values parts separate entries of the source, which are not always exact repeats. Identical values can stand only once. Like-named read-outs stand apart in the source and are kept apart here.

Columns and labels:
M. tuberculosis H37Rv = experiment: Checkerboard assay, two-drug combination with REMA readout; assay type: cell-based, Mycobacterium tuberculosis; settings: for MIC Combined: checkerboard, three independent experiments
[1] = tested on: M. tuberculosis pan-susceptible clinical isolate CDCT-28; experiment: microbe, parasite or virus in culture; assay type: cell-based; settings: Mycobacterium tuberculosis
[2] = tested on: M. tuberculosis pNIP::control; experiment: microbe, parasite or virus in culture; assay type: cell-based; settings: Mycobacterium tuberculosis; pNIP::control (empty vector)
CYP1A2 = CYP1A2 (Homo sapiens, UniProt P05177); experiment: biochemical
S. typhimurium TA97a = experiment: Salmonella/microsome mutagenicity test
Experimental: (§1) Salmonella typhimurium strains TA98, TA97a, TA100, TA1535, and TA102 were provided by MOLTOX® (Molecular Toxicology Inc. USA). Mutagenicity was assayed according to the pre-incubation procedure following the recommendation described in Mortelmans and Zieger (2000). […] Briefly, 100 μL of test bacterial cultures (1–2 x 10^9 cells/mL) were incubated at 37 °C with different concentrations of N9 (10–400 μg/plate) in the presence or absence of S9 mix, for 20 min, without shaking. […] 2-aminoanthracene (2-AA, 5 μg/plate) was used as positive control for all strains in the presence of metabolic activation (with S9 mix). […] Plates were incubated in the dark at 37 °C for 48 h before counting the revertant colonies. Assays were repeated twice and the plating for each concentration was conducted in triplicate. Data were evaluated by one-way analysis of variance (ANOVA), followed by Dunnett's post-test, using GraphPad Prism 5.0 (GraphPad, San Diego, CA, USA).

S. typhimurium TA102 = experiment: Salmonella/microsome mutagenicity test
Experimental: as §1

S. typhimurium TA98 = experiment: Salmonella/microsome mutagenicity test
Experimental: as §1

[3] = tested on: M. tuberculosis pNIP::KatG(WT); experiment: microbe, parasite or virus in culture; assay type: cell-based; settings: Mycobacterium tuberculosis
CYP2C19 = CYP2C19 (Homo sapiens, UniProt P33261); settings: human liver microsomes, CYP2C19, N9 0.01–100 μmol L^-1
CYP2C9 = CYP2C9 (Homo sapiens, UniProt P11712); settings: human liver microsomes
S. typhimurium TA1535 = experiment: Salmonella/microsome mutagenicity test
Experimental: Salmonella typhimurium strains TA98, TA97a, TA100, TA1535, and TA102 were provided by MOLTOX® (Molecular Toxicology Inc. USA). Mutagenicity was assayed according to the pre-incubation procedure following the recommendation described in Mortelmans and Zieger (2000). […] Briefly, 100 μL of test bacterial cultures (1–2 x 10^9 cells/mL) were incubated at 37 °C with different concentrations of N9 (10–400 μg/plate) in the presence or absence of S9 mix, for 20 min, without shaking. […] Plates were incubated in the dark at 37 °C for 48 h before counting the revertant colonies. Assays were repeated twice and the plating for each concentration was conducted in triplicate. Data were evaluated by one-way analysis of variance (ANOVA), followed by Dunnett's post-test, using GraphPad Prism 5.0 (GraphPad, San Diego, CA, USA).

[4] = tested on: M. tuberculosis H37Rv strain; experiment: microbe, parasite or virus in culture; assay type: cell-based

Chain of CYP1A2 (P05177 whole entry): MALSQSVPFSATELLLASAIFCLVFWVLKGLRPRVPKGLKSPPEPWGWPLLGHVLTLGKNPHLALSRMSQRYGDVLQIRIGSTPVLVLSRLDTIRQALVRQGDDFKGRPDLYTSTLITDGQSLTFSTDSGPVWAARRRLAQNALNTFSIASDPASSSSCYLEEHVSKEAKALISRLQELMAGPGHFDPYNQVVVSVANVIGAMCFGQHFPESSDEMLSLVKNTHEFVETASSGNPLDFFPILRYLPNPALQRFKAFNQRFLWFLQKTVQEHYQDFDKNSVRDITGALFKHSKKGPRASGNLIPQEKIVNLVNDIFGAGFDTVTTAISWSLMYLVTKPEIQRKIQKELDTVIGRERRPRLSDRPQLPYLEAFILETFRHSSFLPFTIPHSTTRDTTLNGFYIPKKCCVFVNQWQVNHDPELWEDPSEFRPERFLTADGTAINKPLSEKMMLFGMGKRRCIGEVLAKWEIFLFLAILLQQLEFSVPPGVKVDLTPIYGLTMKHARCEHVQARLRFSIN
Chain of CYP2C19 (P33261 whole entry): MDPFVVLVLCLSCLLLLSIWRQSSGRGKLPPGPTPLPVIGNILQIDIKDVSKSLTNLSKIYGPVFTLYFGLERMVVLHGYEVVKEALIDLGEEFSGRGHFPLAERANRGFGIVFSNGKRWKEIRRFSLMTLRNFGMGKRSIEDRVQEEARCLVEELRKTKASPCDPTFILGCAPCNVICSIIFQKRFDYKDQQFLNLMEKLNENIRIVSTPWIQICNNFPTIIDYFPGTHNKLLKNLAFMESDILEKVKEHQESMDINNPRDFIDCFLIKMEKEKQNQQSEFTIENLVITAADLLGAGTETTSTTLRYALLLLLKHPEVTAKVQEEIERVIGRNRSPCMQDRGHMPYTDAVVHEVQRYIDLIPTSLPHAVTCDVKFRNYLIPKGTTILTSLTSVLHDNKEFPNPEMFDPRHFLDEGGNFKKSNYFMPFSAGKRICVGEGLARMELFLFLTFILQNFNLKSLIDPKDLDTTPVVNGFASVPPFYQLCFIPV
Chain of CYP2C9 (P11712 whole entry): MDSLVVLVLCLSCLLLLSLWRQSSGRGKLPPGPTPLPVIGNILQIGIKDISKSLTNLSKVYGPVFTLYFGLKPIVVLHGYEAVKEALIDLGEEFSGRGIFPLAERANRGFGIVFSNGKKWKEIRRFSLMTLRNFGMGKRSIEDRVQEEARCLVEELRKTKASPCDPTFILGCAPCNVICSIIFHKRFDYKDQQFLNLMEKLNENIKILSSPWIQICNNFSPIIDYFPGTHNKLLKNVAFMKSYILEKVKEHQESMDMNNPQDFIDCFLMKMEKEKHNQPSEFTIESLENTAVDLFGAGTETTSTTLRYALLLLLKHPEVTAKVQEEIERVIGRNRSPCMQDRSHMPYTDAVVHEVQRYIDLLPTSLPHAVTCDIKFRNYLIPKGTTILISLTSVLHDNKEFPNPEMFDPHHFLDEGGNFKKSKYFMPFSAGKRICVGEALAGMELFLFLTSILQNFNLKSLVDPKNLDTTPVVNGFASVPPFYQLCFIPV

COc1ccc(OC)c(C(=O)/C=C/c2ccc3nccnc3c2)c1 [N9]
FICI (fractional inhibitory concentration index) (M. tuberculosis H37Rv; N9 combined with MFX): below 0.5
MIC Combined (M. tuberculosis H37Rv; combination N9 + EMB): 0.78 µg/mL
MIC Combined (M. tuberculosis H37Rv; combination N9 + INH): 0.78 µg/mL
MIC Combined (M. tuberculosis H37Rv; combination N9 + RIF): 0.78 µg/mL and 1.56 µg/mL
MIC [1]: 1.56 µg/mL (≈ 4.87 µM)
MIC [2]: 3.13 µg/mL (≈ 9.77 µM)
pIC50 (CYP1A2): 5.70
MI: mutagenic index (S. typhimurium TA97a; +S9, 10 μg/plate): 1.11
Number of revertants/plate (S. typhimurium TA97a; +S9, 10 μg/plate): 128.0±12.1 Rev/plate
MI: mutagenic index (S. typhimurium TA97a; +S9, 50 μg/plate): 0.92
Number of revertants/plate (S. typhimurium TA97a; +S9, 50 μg/plate): 106.0±14.2 Rev/plate
MI: mutagenic index (S. typhimurium TA97a; +S9, 100 μg/plate): 0.98
Number of revertants/plate (S. typhimurium TA97a; +S9, 100 μg/plate): 113.5±5.0 Rev/plate
MI: mutagenic index (S. typhimurium TA97a; +S9, 200 μg/plate): 0.71
Number of revertants/plate (S. typhimurium TA97a; +S9, 200 μg/plate): 82.0±1.0 Rev/plate
MI: mutagenic index (S. typhimurium TA97a; +S9, 400 μg/plate): 0.90
Number of revertants/plate (S. typhimurium TA97a; +S9, 400 μg/plate): 104.0±28.8 Rev/plate
MI: mutagenic index (S. typhimurium TA97a; -S9, 10 μg/plate): 1.14
Number of revertants/plate (S. typhimurium TA97a; -S9, 10 μg/plate): 145.7±20.3 Rev/plate
MI: mutagenic index (S. typhimurium TA97a; -S9, 50 μg/plate): 0.98
Number of revertants/plate (S. typhimurium TA97a; -S9, 50 μg/plate): 125.0±12.5 Rev/plate
MI: mutagenic index (S. typhimurium TA97a; -S9, 100 μg/plate): 0.93
Number of revertants/plate (S. typhimurium TA97a; -S9, 100 μg/plate): 118.0±8.2 Rev/plate
MI: mutagenic index (S. typhimurium TA97a; -S9, 200 μg/plate): 0.98
Number of revertants/plate (S. typhimurium TA97a; -S9, 200 μg/plate): 124.3±13.3 Rev/plate
MI: mutagenic index (S. typhimurium TA97a; -S9, 400 μg/plate): 1.05
Number of revertants/plate (S. typhimurium TA97a; -S9, 400 μg/plate): 134.0±3.6 Rev/plate
MI: mutagenic index (S. typhimurium TA102; TA102, +S9, 10 μg/plate): 1.01
Number of revertants/plate (S. typhimurium TA102; TA102, +S9, 10 μg/plate): 376.3±29.0 Rev/plate
MI: mutagenic index (S. typhimurium TA102; TA102, +S9, 50 μg/plate): 0.96
Number of revertants/plate (S. typhimurium TA102; TA102, +S9, 50 μg/plate): 358.0±49.1 Rev/plate
MI: mutagenic index (S. typhimurium TA102; TA102, +S9, 100 μg/plate): 0.99
Number of revertants/plate (S. typhimurium TA102; TA102, +S9, 100 μg/plate): 368.7±12.7 Rev/plate
MI: mutagenic index (S. typhimurium TA102; TA102, +S9, 200 μg/plate): 1.02
Number of revertants/plate (S. typhimurium TA102; TA102, +S9, 200 μg/plate): 382.0±58.2 Rev/plate
MI: mutagenic index (S. typhimurium TA102; TA102, +S9, 400 μg/plate): 0.99
Number of revertants/plate (S. typhimurium TA102; TA102, +S9, 400 μg/plate): 371.0±23.6 Rev/plate
MI: mutagenic index (S. typhimurium TA102; TA102, -S9, 10 μg/plate): 0.75
Number of revertants/plate (S. typhimurium TA102; TA102, -S9, 10 μg/plate): 254.3±47.1 Rev/plate
MI: mutagenic index (S. typhimurium TA102; TA102, -S9, 50 μg/plate): 0.89
Number of revertants/plate (S. typhimurium TA102; TA102, -S9, 50 μg/plate): 299.3±50.6 Rev/plate
MI: mutagenic index (S. typhimurium TA102; TA102, -S9, 100 μg/plate): 1.01
Number of revertants/plate (S. typhimurium TA102; TA102, -S9, 100 μg/plate): 341.3±16.8 Rev/plate
MI: mutagenic index (S. typhimurium TA102; TA102, -S9, 200 μg/plate): 0.96
Number of revertants/plate (S. typhimurium TA102; TA102, -S9, 200 μg/plate): 324.3±4.2 Rev/plate
MI: mutagenic index (S. typhimurium TA102; TA102, -S9, 400 μg/plate): 0.95
Number of revertants/plate (S. typhimurium TA102; TA102, -S9, 400 μg/plate): 321.0±27.4 Rev/plate
MI: mutagenic index (S. typhimurium TA98; TA98, +S9, 10 μg/plate): 1.09
Number of revertants/plate (S. typhimurium TA98; TA98, +S9, 10 μg/plate): 43.7±4.7 Rev/plate
MI: mutagenic index (S. typhimurium TA98; TA98, +S9, 50 μg/plate): 0.80
Number of revertants/plate (S. typhimurium TA98; TA98, +S9, 50 μg/plate): 32.0±7.8 Rev/plate
MI: mutagenic index (S. typhimurium TA98; TA98, +S9, 100 μg/plate): 0.94
Number of revertants/plate (S. typhimurium TA98; TA98, +S9, 100 μg/plate): 37.7±5.7 Rev/plate
MI: mutagenic index (S. typhimurium TA98; TA98, +S9, 200 μg/plate): 1.05
Number of revertants/plate (S. typhimurium TA98; TA98, +S9, 200 μg/plate): 42.0±5.6 Rev/plate
MI: mutagenic index (S. typhimurium TA98; TA98, +S9, 400 μg/plate): 1.06
Number of revertants/plate (S. typhimurium TA98; TA98, +S9, 400 μg/plate): 42.3±6.7 Rev/plate
MI: mutagenic index (S. typhimurium TA98; TA98, -S9, 10 μg/plate): 0.83
Number of revertants/plate (S. typhimurium TA98; TA98, -S9, 10 μg/plate): 28.3±7.6 Rev/plate
MI: mutagenic index (S. typhimurium TA98; TA98, -S9, 50 μg/plate): 0.73
Number of revertants/plate (S. typhimurium TA98; TA98, -S9, 50 μg/plate): 25.0±6.1 Rev/plate
MI: mutagenic index (S. typhimurium TA98; TA98, -S9, 100 μg/plate): 0.81
Number of revertants/plate (S. typhimurium TA98; TA98, -S9, 100 μg/plate): 27.7±4.0 Rev/plate
MI: mutagenic index (S. typhimurium TA98; TA98, -S9, 200 μg/plate): 0.89
Number of revertants/plate (S. typhimurium TA98; TA98, -S9, 200 μg/plate): 30.5±2.1 Rev/plate
MI: mutagenic index (S. typhimurium TA98; TA98, -S9, 400 μg/plate): 1.24
Number of revertants/plate (S. typhimurium TA98; TA98, -S9, 400 μg/plate): 42.5±15.8 Rev/plate
MIC [3]: 3.13 µg/mL (≈ 9.77 µM)
percentage of remaining enzyme activity (CYP2C19): approximately 100%
Inhibitory potential (CYP2C9): weak inhibitory potential
MI: mutagenic index (S. typhimurium TA1535; TA1535, +S9, 10 μg/plate): 1.16
Number of revertants/plate (S. typhimurium TA1535; TA1535, +S9, 10 μg/plate): 9.7±1.2 Rev/plate
MI: mutagenic index (S. typhimurium TA1535; TA1535, +S9, 50 μg/plate): 1.24
Number of revertants/plate (S. typhimurium TA1535; TA1535, +S9, 50 μg/plate): 10.3±2.5 Rev/plate
MI: mutagenic index (S. typhimurium TA1535; TA1535, +S9, 100 μg/plate): 1.00
Number of revertants/plate (S. typhimurium TA1535; TA1535, +S9, 100 μg/plate): 8.3±4.9 Rev/plate
MI: mutagenic index (S. typhimurium TA1535; TA1535, +S9, 200 μg/plate): 1.04
Number of revertants/plate (S. typhimurium TA1535; TA1535, +S9, 200 μg/plate): 8.7±1.2 Rev/plate
MI: mutagenic index (S. typhimurium TA1535; TA1535, +S9, 400 μg/plate): 0.68
Number of revertants/plate (S. typhimurium TA1535; TA1535, +S9, 400 μg/plate): 5.7±1.2 Rev/plate
MI: mutagenic index (S. typhimurium TA1535; TA1535, -S9, 10 μg/plate): 1.03
Number of revertants/plate (S. typhimurium TA1535; TA1535, -S9, 10 μg/plate): 11.7±0.6 Rev/plate
MI: mutagenic index (S. typhimurium TA1535; TA1535, -S9, 50 μg/plate): 0.82
Number of revertants/plate (S. typhimurium TA1535; TA1535, -S9, 50 μg/plate): 9.3±0.6 Rev/plate
MI: mutagenic index (S. typhimurium TA1535; TA1535, -S9, 100 μg/plate): 1.03
Number of revertants/plate (S. typhimurium TA1535; TA1535, -S9, 100 μg/plate): 11.7±5.9 Rev/plate
MI: mutagenic index (S. typhimurium TA1535; TA1535, -S9, 200 μg/plate): 1.18
Number of revertants/plate (S. typhimurium TA1535; TA1535, -S9, 200 μg/plate): 13.3±4.0 Rev/plate
MI: mutagenic index (S. typhimurium TA1535; TA1535, -S9, 400 μg/plate): 1.24
Number of revertants/plate (S. typhimurium TA1535; TA1535, -S9, 400 μg/plate): 14.0±3.6 Rev/plate
MIC ([4]; H37Rv): 3.13 µg/mL (≈ 9.77 µM)
MIC ([4]; Mycobacterium tuberculosis, H37RV, read-out: MIC): 3.13 to 12.5 µg/mL (≈ 9.77 to 39 µM)
MIC ([4]; Mycobacterium tuberculosis, read-out: MICs, M. tuberculosis H37Rv strain, and clinical isolates (summary)): 1.56 to 3.13 µg/mL (≈ 4.87 to 9.79 µM)
